Data reported in the NIST ThermoML archive (doi:10.1021/acs.jced.5b01043).
Numbers after ± are expanded uncertainties.

Assays:
[1] = wn = mass fraction of the nth substance listed; settings: 100 kPa, Liquid, Vibrating tube method
[2] = refractive index (Na D-line) (dimensionless); wn = mass fraction of the nth substance listed; settings: 100 kPa, Liquid, Standard Abbe refractometry

CCN(C=O)CC [N,N-diethylformamide] + O
298.15 K
Settings	mass density, [1] [kg/m3]	refractive index, [2]
w1 = 0.009925	996.45 ± 0.11	1.33379 ± 0.00031
w1 = 0.04	995.04 ± 0.11	1.33758 ± 0.00031
w1 = 0.06998	993.7 ± 0.11	1.34136 ± 0.00032
w1 = 0.09919	992.49 ± 0.12	1.34512 ± 0.00032
w1 = 0.129	991.3 ± 0.12	1.34898 ± 0.00032
w1 = 0.16	989.97 ± 0.12	1.35302 ± 0.00032
w1 = 0.1897	988.8 ± 0.12	1.35684 ± 0.00032

CCN(C=O)CC [N,N-diethylformamide] + [Cl-].[Cs+]
288.15 K, w2 = 0.0013
Settings	mass density [kg/m3]	refractive index
[1]	910.38 ± 0.26	–
[2]	–	1.43686 ± 0.00037

CCN(C=O)CC [N,N-diethylformamide] + [Cl-].[K+]
Settings	mass density, [1] [kg/m3]	refractive index, [2]
288.15 K, w2 = 0.0015	911.47 ± 0.27	1.43618 ± 0.00037
298.15 K, w2 = 0.0009	903.51 ± 0.25	1.43281 ± 0.00037
308.15 K, w2 = 0.0005	896.68 ± 0.24	1.42872 ± 0.00037

CCN(C=O)CC [N,N-diethylformamide] + [Cl-].[Na+]
Settings	mass density, [1] [kg/m3]	refractive index, [2]
288.15 K, w2 = 0.0013	912.57 ± 0.26	1.43642 ± 0.00037
298.15 K, w2 = 0.0009	904.23 ± 0.25	1.43203 ± 0.00037
308.15 K, w2 = 0.0005	896.38 ± 0.24	1.42776 ± 0.00037

CCN(C=O)CC [N,N-diethylformamide] + [Cl-].[Rb+]
Settings	mass density, [1] [kg/m3]	refractive index, [2]
288.15 K, w2 = 0.0016	910.95 ± 0.28	1.43675 ± 0.00037
298.15 K, w2 = 0.0011	902.43 ± 0.25	1.43253 ± 0.00037
308.15 K, w2 = 0.0008	894.54 ± 0.25	1.42819 ± 0.00037

[Cl-].[Cs+] [cesium chloride] + O
288.15 K, w1 = 0.6406
Settings	mass density [kg/m3]	refractive index
[1]	1893.82 ± 1.2	–
[2]	–	1.41772 ± 0.00032

[Cl-].[K+] [potassium chloride] + O
Settings	mass density, [1] [kg/m3]	refractive index, [2]
288.15 K, w1 = 0.2483	1169.18 ± 0.67	1.36809 ± 0.00032
298.15 K, w1 = 0.2668	1174.11 ± 0.68	1.36838 ± 0.00032
308.15 K, w1 = 0.2768	1184.11 ± 0.68	1.36932 ± 0.00032

[Cl-].[Rb+] [rubidium chloride] + O
Settings	mass density, [1] [kg/m3]	refractive index, [2]
288.15 K, w1 = 0.4652	1482.6 ± 0.87	1.38751 ± 0.00032
298.15 K, w1 = 0.4823	1495.24 ± 0.88	1.38769 ± 0.00032
308.15 K, w1 = 0.5033	1520.16 ± 0.9	1.38939 ± 0.00032

[Cl-].[Na+] [sodium chloride] + O
Settings	mass density, [1] [kg/m3]	refractive index, [2]
288.15 K, w1 = 0.2631	1202.37 ± 0.69	1.381 ± 0.00032
298.15 K, w1 = 0.265	1197.1 ± 0.69	1.37938 ± 0.00031
308.15 K, w1 = 0.2666	1193.13 ± 0.69	1.37784 ± 0.00032
